PubChem BioAssay (NCI)
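Each compound was tested at five concentrations against cells in 96-well plates for 48 hours. Abbreviation: GI50, concentration required for 50% inhibition of growth. TGI: total growth inhibition.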

Legend:
Assay in all cases: inhibition of tumour cell growth, NCI panel, 48 h
786-0 renal = system: 786-0 renal
A498 renal = system: A498 renal
A549 NSCLC = system: A549 NSCLC
ACHN renal = system: ACHN renal
CCRF-CEM leukemia = system: CCRF-CEM leukemia
COLO 205 colon = system: COLO 205 colon
DLD-1 colon = system: DLD-1 colon
DMS 114 small cell lung = system: DMS 114 small cell lung
EKVX NSCLC = system: EKVX NSCLC
HCC-2998 colon = system: HCC-2998 colon
HCT-116 colon = system: HCT-116 colon
HL-60(TB) leukemia = system: HL-60(TB) leukemia
HOP-18 NSCLC = system: HOP-18 NSCLC
HOP-62 NSCLC = system: HOP-62 NSCLC
HOP-92 NSCLC = system: HOP-92 NSCLC
HT29 colon = system: HT29 colon
IGROV1 ovarian = system: IGROV1 ovarian
KM12 colon = system: KM12 colon
KM20L2 colon = system: KM20L2 colon
LOX IMVI melanoma = system: LOX IMVI melanoma
LXFL 529 NSCLC = system: LXFL 529 NSCLC
M14 melanoma = system: M14 melanoma
M19-MEL melanoma = system: M19-MEL melanoma
MALME-3M melanoma = system: MALME-3M melanoma
MOLT-4 leukemia = system: MOLT-4 leukemia
NCI-H226 lung = system: NCI-H226 lung
NCI-H23 lung = system: NCI-H23 lung
NCI-H460 lung = system: NCI-H460 lung
OVCAR-3 ovarian = system: OVCAR-3 ovarian
OVCAR-4 ovarian = system: OVCAR-4 ovarian
OVCAR-5 ovarian = system: OVCAR-5 ovarian
OVCAR-8 ovarian = system: OVCAR-8 ovarian
RPMI-8226 leukemia = system: RPMI-8226 leukemia
RXF 393 renal = system: RXF 393 renal
RXF-631 renal = system: RXF-631 renal
SF-268 CNS = system: SF-268 CNS
SF-295 CNS = system: SF-295 CNS
SK-MEL-2 melanoma = system: SK-MEL-2 melanoma
SK-MEL-28 melanoma = system: SK-MEL-28 melanoma
SK-MEL-5 melanoma = system: SK-MEL-5 melanoma
SN12C renal = system: SN12C renal
SNB-19 CNS = system: SNB-19 CNS
SNB-75 CNS = system: SNB-75 CNS
SNB-78 CNS = system: SNB-78 CNS
SW-620 colon = system: SW-620 colon
TK-10 renal = system: TK-10 renal
U251 CNS = system: U251 CNS
UACC-257 melanoma = system: UACC-257 melanoma
UACC-62 melanoma = system: UACC-62 melanoma
UO-31 renal = system: UO-31 renal
XF 498 CNS = system: XF 498 CNS
BT-549 breast = system: BT-549 breast
CAKI-1 renal = system: CAKI-1 renal
DMS 273 small cell lung = system: DMS 273 small cell lung
HCT-15 colon = system: HCT-15 colon
HS 578T breast = system: HS 578T breast
K-562 leukemia = system: K-562 leukemia
MCF7 breast = system: MCF7 breast
MDA-MB-231 breast = system: MDA-MB-231 breast
MDA-N = system: MDA-N
NCI-H522 lung = system: NCI-H522 lung
PC-3 prostate = system: PC-3 prostate
SF-539 CNS = system: SF-539 CNS
SK-OV-3 ovarian = system: SK-OV-3 ovarian
SR leukemia = system: SR leukemia

For `CCc1ccccc1NC(=O)C(=O)C(C#N)c1ccccc1Cl` (centres undefined), the TGI (786-0 renal) was over 100 µM, the TGI (A498 renal) was over 100 µM and the TGI (A549 NSCLC) was over 100 µM. For the same molecule, the TGI (ACHN renal) was over 100 µM, the TGI (CCRF-CEM leukemia) was over 100 µM and the TGI (COLO 205 colon) was over 100 µM. It also gave a TGI (DLD-1 colon) of over 100 µM, a TGI (DMS 114 small cell lung) of over 100 µM and a TGI (EKVX NSCLC) of over 100 µM. It also gave a TGI (HCC-2998 colon) of over 100 µM, a TGI (HCT-116 colon) of over 100 µM and a TGI (HL-60(TB) leukemia) of over 100 µM. The TGI (HOP-18 NSCLC) was over 100 µM, the TGI (HOP-62 NSCLC) was over 100 µM and the TGI (HOP-92 NSCLC) was over 100 µM. The TGI (HT29 colon) was over 100 µM, the TGI (IGROV1 ovarian) was over 100 µM and the TGI (KM12 colon) was over 100 µM. It also gave a TGI (KM20L2 colon) of over 100 µM, a TGI (LOX IMVI melanoma) of 10.9 µM and a TGI (LXFL 529 NSCLC) of over 100 µM. It also gave a TGI (M14 melanoma) of over 100 µM, a TGI (M19-MEL melanoma) of over 100 µM and a TGI (MALME-3M melanoma) of over 100 µM. The TGI (MOLT-4 leukemia) was over 100 µM, the TGI (NCI-H226 lung) was over 100 µM and the TGI (NCI-H23 lung) was over 100 µM. It also gave a TGI (NCI-H460 lung) of 33.1 µM, a TGI (OVCAR-3 ovarian) of over 100 µM and a TGI (OVCAR-4 ovarian) of over 100 µM. It also gave a TGI (OVCAR-5 ovarian) of over 100 µM, a TGI (OVCAR-8 ovarian) of over 100 µM and a TGI (RPMI-8226 leukemia) of over 100 µM. The TGI (RXF 393 renal) was over 100 µM, the TGI (RXF-631 renal) was over 100 µM and the TGI (SF-268 CNS) was over 100 µM. The TGI (SF-295 CNS) was over 100 µM, the TGI (SK-MEL-2 melanoma) was over 100 µM and the TGI (SK-MEL-28 melanoma) was over 100 µM. It also gave a TGI (SK-MEL-5 melanoma) of over 100 µM, a TGI (SN12C renal) of over 100 µM and a TGI (SNB-19 CNS) of over 100 µM. For the same molecule, the TGI (SNB-75 CNS) was over 100 µM, the TGI (SNB-78 CNS) was over 100 µM and the TGI (SW-620 colon) was over 100 µM. For the same molecule, the TGI (TK-10 renal) was 6.31 µM, the TGI (U251 CNS) was over 100 µM and the TGI (UACC-257 melanoma) was over 100 µM. The TGI (UACC-62 melanoma) was over 100 µM, the TGI (UO-31 renal) was over 100 µM and the TGI (XF 498 CNS) was over 100 µM.

Molecule `CC1CCC2C(C)C(=O)OC3OC4(C)CCC1C32OO4` (centres undefined) has a GI50 (786-0 renal) of over 100 µM, a TGI (786-0 renal) of over 100 µM and a GI50 (A498 renal) of over 100 µM. The TGI (A498 renal) was over 100 µM, the TGI (A549 NSCLC) was over 100 µM and the GI50 (ACHN renal) was over 100 µM. The TGI (ACHN renal) was over 100 µM, the TGI (BT-549 breast) was over 100 µM and the TGI (CAKI-1 renal) was over 100 µM. It also gave a TGI (CCRF-CEM leukemia) of over 100 µM, a GI50 (COLO 205 colon) of over 100 µM and a TGI (COLO 205 colon) of over 100 µM. It also gave a TGI (DMS 114 small cell lung) of over 100 µM, a TGI (DMS 273 small cell lung) of over 100 µM and a TGI (EKVX NSCLC) of over 100 µM. The TGI (HCC-2998 colon) was over 100 µM, the TGI (HCT-116 colon) was over 100 µM and the TGI (HCT-15 colon) was over 100 µM. It also gave a TGI (HL-60(TB) leukemia) of over 100 µM, a TGI (HOP-18 NSCLC) of over 100 µM and a GI50 (HOP-62 NSCLC) of over 100 µM. For the same molecule, the TGI (HOP-62 NSCLC) was over 100 µM, the GI50 (HOP-92 NSCLC) was over 100 µM and the TGI (HOP-92 NSCLC) was over 100 µM. The GI50 (HS 578T breast) was over 100 µM, the TGI (HS 578T breast) was over 100 µM and the GI50 (HT29 colon) was over 100 µM. The TGI (HT29 colon) was over 100 µM, the TGI (IGROV1 ovarian) was over 100 µM and the TGI (K-562 leukemia) was over 100 µM. For the same molecule, the GI50 (KM12 colon) was over 100 µM, the TGI (KM12 colon) was over 100 µM and the TGI (KM20L2 colon) was over 100 µM. For the same molecule, the TGI (LOX IMVI melanoma) was over 100 µM, the TGI (LXFL 529 NSCLC) was over 100 µM and the TGI (M14 melanoma) was over 100 µM. It also gave a TGI (M19-MEL melanoma) of over 100 µM, a TGI (MALME-3M melanoma) of over 100 µM and a GI50 (MCF7 breast) of over 100 µM. It also gave a TGI (MCF7 breast) of over 100 µM, a TGI (MDA-MB-231 breast) of over 100 µM and a GI50 (MDA-N) of over 100 µM. The TGI (MDA-N) was over 100 µM, the TGI (MOLT-4 leukemia) was over 100 µM and the GI50 (NCI-H226 lung) was over 100 µM. For the same molecule, the TGI (NCI-H226 lung) was over 100 µM, the GI50 (NCI-H23 lung) was over 100 µM and the TGI (NCI-H23 lung) was over 100 µM. The GI50 (NCI-H460 lung) was over 100 µM, the TGI (NCI-H460 lung) was over 100 µM and the TGI (NCI-H522 lung) was over 92.6 µM. It also gave a TGI (OVCAR-3 ovarian) of over 100 µM, a TGI (OVCAR-4 ovarian) of over 100 µM and a GI50 (OVCAR-5 ovarian) of over 100 µM. It also gave a TGI (OVCAR-5 ovarian) of over 100 µM, a GI50 (OVCAR-8 ovarian) of over 100 µM and a TGI (OVCAR-8 ovarian) of over 100 µM. For the same molecule, the TGI (PC-3 prostate) was over 100 µM, the TGI (RPMI-8226 leukemia) was over 100 µM and the TGI (RXF 393 renal) was over 100 µM. It also gave a TGI (RXF-631 renal) of over 100 µM, a TGI (SF-268 CNS) of over 100 µM and a TGI (SF-295 CNS) of over 100 µM. It also gave a TGI (SF-539 CNS) of over 100 µM, a TGI (SK-MEL-2 melanoma) of over 100 µM and a GI50 (SK-MEL-28 melanoma) of over 100 µM. The TGI (SK-MEL-28 melanoma) was over 100 µM, the TGI (SK-MEL-5 melanoma) was over 100 µM and the TGI (SK-OV-3 ovarian) was over 100 µM. It also gave a TGI (SN12C renal) of over 100 µM, a GI50 (SNB-19 CNS) of over 100 µM and a TGI (SNB-19 CNS) of over 100 µM. The TGI (SNB-75 CNS) was over 97.2 µM, the TGI (SNB-78 CNS) was over 100 µM and the GI50 (SR leukemia) was over 100 µM. For the same molecule, the TGI (SR leukemia) was over 100 µM, the GI50 (SW-620 colon) was over 100 µM and the TGI (SW-620 colon) was over 100 µM. The GI50 (TK-10 renal) was over 100 µM, the TGI (TK-10 renal) was over 100 µM and the GI50 (U251 CNS) was over 100 µM. For the same molecule, the TGI (U251 CNS) was over 100 µM, the GI50 (UACC-257 melanoma) was over 100 µM and the TGI (UACC-257 melanoma) was over 100 µM. For the same molecule, the GI50 (UACC-62 melanoma) was over 100 µM, the TGI (UACC-62 melanoma) was over 100 µM and the TGI (UO-31 renal) was over 100 µM. For the same molecule, the TGI (XF 498 CNS) was over 100 µM.
